# Assay results reported in patent US7964567B2, “Monomethylvaline compounds capable of conjugation to ligands” (Seattle Genetics, Inc., priority 2003, dated 2011).
# Square brackets hold non-standard residues; d marks the D form. Peptide text beside a SMILES is read from it. * marks the point of attachment. Dolaproine = CO[C@@H]([C@@H]1CCCN1)[C@@H](C)C(=O)O; Dil = CC[C@H](C)[C@H](NC)[C@@H](CC(=O)O)OC; X1 = C[C@@H](N*)[C@@H](O)c1ccccc1; NMeV = CN[C@H](C(=O)O)C(C)C
# Columns and labels:
# [1] = system: CD30+ cell line Karpas 299; test: Cytotoxicity determination (resazurin, General Procedure I), Karpas 299; format: cell-based, human; details: Karpas 299, 96 hours; for IC50: resazurin
# Protocol: General Procedure I—Cytotoxicity determination. To evaluate the cytotoxicity of Exemplary Conjugates 7-10, cells were seeded at approximately 5-10,000 per well in 150 μl of culture medium then treated with graded doses of Exemplary Conjugates 7-10 in quadruplicates at the initiation of assay. Cytotoxicity assays were carried out for 96 hours after addition of test compounds. Fifty μl of the resazurin dye was added to each well during the last 4 to 6 hours of the incubation to assess viable cells at the end of culture. Dye reduction was determined by fluorescence spectrometry using the excitation and emission wavelengths of 535 nm and 590 nm, respectively. For analysis, the extent of resazurin reduction by the treated cells was compared to that of the untreated control cells.
# [2] = system: SK-BR-3 cells; test: In vitro cell proliferation assay (CellTiter-Glo), SK-BR-3 cells; format: cell-based, human; details: ADC incubated 3-5 days
# Protocol: Cell-based in vitro assays were used to measure viability (proliferation), cytotoxicity, and induction of apoptosis (caspase activation) of the ADC of the invention.
# The homogeneous assay procedure involves adding the single reagent (CellTiter-Glo® Reagent) directly to cells cultured in serum-supplemented medium. Cell washing, removal of medium and multiple pipetting steps are not required. The system detects as few as 15 cells/well in a 384-well format in 10 minutes after adding reagent and mixing. The cells may be treated continuously with ADC, or they may be treated and separated from ADC.
# The homogeneous “add-mix-measure” format results in cell lysis and generation of a luminescent signal proportional to the amount of ATP present. The amount of ATP is directly proportional to the number of cells present in culture. […] Viable cells are reflected in relative luminescence units (RLU). […] Data can be recorded by luminometer or CCD camera imaging device. The luminescence output is presented as relative light units (RLU), measured over time.
# Control wells were prepared containing medium and without cells. • 3. […] The plate was incubated at room temperature for 10 minutes to stabilize the luminescence signal. • 8. Luminescence was recorded and reported in graphs as RLU=relative luminescence units.
# [3] = Plasma clearance pharmacokinetics in rats; format: in vivo, Sprague-Dawley rats; details: rat, free drug
# Protocol: Pharmacokinetic plasma clearance and stability of ADC were investigated in rats and cynomolgus monkeys. Plasma concentration was measured over time. […] Rats are a non-specific model for ErbB receptor antibodies, since the rat is not known to express HER2 receptor proteins.
# AUC inf is the area under the plasma concentration-time curve from time of dosing to infinity and is a measure of the total exposure to the measured entity (drug, ADC). CL is defined as the volume of plasma cleared of the measured entity in unit time and is expressed by normalizing to body weight. T1/2 term is the half-life of the drug in the body measured during its elimination phase.
# Animals were dosed by bolus tail vein injection (IV Push). […] Total antibody was measured by ELISA—ECD/GxhuFc-HRP. Antibody drug conjugate was measured by ELISA—MMAE/MMAF/ECD-Bio/SA-HRP.
molecule,measurement,setting,value
cAC10-9: cAC10 Conjugate of Compound 9,activity compared with cAC10-val-cit-MMAE,[1],slightly more active
same,IC50,[1],0.5 ng/mL
cAC10-val-cit-MMAE: cAC10 (anti-CD30) val-cit MMAE conjugate used as comparator [reference compound],IC50,[1],6 ng/mL
H-MC-vc-PAB-MMAE: trastuzumab conjugated via a cysteine to MC-val-cit-PAB-MMAE; preparations of different loading,IC50 (μg ADC/ml),[2],0.015 μg ADC/ml
"CC[C@H](C)[C@@H]([C@@H](CC(=O)N1CCC[C@H]1[C@H](OC)[C@@H](C)C(=O)N[C@H](C)[C@@H](O)c1ccccc1)OC)N(C)C(=O)[C@@H](NC(=O)[C@@H](NC)C(C)C)C(C)C [MMAE, mono-methyl auristatin E, reference compound] (H-[NMeV]V[Dil][Dolaproine]-X1)",AUCinf,[3]; 206 μg/kg,3.71 µg·days/mL
same,CL,[3]; 206 μg/kg,62.6 mL/day/kg
same,T½ Term.,[3]; 206 μg/kg,0.743 days
"CC[C@H](C)[C@@H]([C@@H](CC(=O)N1CCC[C@H]1[C@H](OC)[C@@H](C)C(=O)N[C@@H](Cc1ccccc1)C(=O)O)OC)N(C)C(=O)[C@@H](NC(=O)[C@@H](NC)C(C)C)C(C)C [Compound 2, N-methylvaline-valine-dolaisoleuine-dolaproine-phenylalanine] (H-[NMeV]V[Dil][Dolaproine]F-OH)",Cmax,"[3]; Sprague-Dawley, plasma, intravenous, 200 ug/kg",280 ng/mL
same,half-life,"[3]; Sprague-Dawley, plasma, intravenous, 200 ug/kg, 200 μg/kg, read-out: T½ Term. (converted)",323 min
same,AUCinf,[3]; 200 μg/kg,0.99 µg·days/mL
same,CL,[3]; 200 μg/kg,204 mL/day/kg
